Consider one compound from patent publication US8809321B2, “Diaryl ether linked pyrrolo [2,1-c][1,4] benzodiazepine hybrids and process for the preparation thereof” (Council of Scientific and Industrial Research, priority 2011, dated 2014).

Experiment [1] deals with Gurav oral cancer cell line. As to the kind of experiment: MTT assay, 48 h continuous drug exposure, Gurav. The format is cell-based, human. To be noted: Homo sapiens, Gurav, 48 h, read-out: GI50 Gurav. As for the experimental part:
(§1) For each compound, dose response curves for each cell line were measured at a minimum of five concentrations at 10 fold dilutions. A protocol of 48 h continuous drug exposure was used and a MTT assay was used to estimate cell viability or growth. The percent of cell growth (GI50) compared with the control was calculated.
On the technique in general: Formazan colour is commonly taken as a measure of viable cells.

For experiment [2], the system named is DWD oral cancer cell line. As to the kind of experiment: MTT assay, 48 h continuous drug exposure, DWD. To be noted: Homo sapiens, 48 h, read-out: GI50 DWD. The format is cell-based, human. As for the experimental part:
as §1

Experiment [3] deals with A2780 ovarian cancer cell line. As to the kind of experiment: MTT assay, 48 h continuous drug exposure, A2780. Particulars: Homo sapiens, A2780, 48 h, read-out: GI50 A2780. The format is cell-based, human. As for the experimental part:
as §1

Experiment [4] has as its system duplex-form calf thymus DNA (CT-DNA). As to the kind of experiment: Thermal denaturation studies with calf thymus DNA (DNA binding affinity). To be noted: [PBD]:[DNA] molar ratio 1:5, CT-DNA 100 μM, ligand 20 μM, sodium phosphate buffer pH 7.00. The protocol:
DNA Binding Affinity of Diaryl Ether Linked PBD Hybrids: Compounds have been subjected to thermal denaturation studies with duplex-form calf thymus DNA (CT-DNA) using a modification of a reported procedure (Newman, M. S. Carcinog-compr. Surv. 1976, 1, 203; ([…].; Loy, M.; Hoffman, Carcinog-compr. […] The DNA-PBD solutions have been incubated at 37° C. for 0 and 18 h prior to analysis. […] DNA helix→coil transition temperatures (Tm) have been obtained from the maxima in the d(A260)/dT derivative plots. […] The DNA binding activity for these novel C8-linked diaryl ether PBD hybrids has been examined by thermal denaturation studies using calf thymus (CT) DNA. […] The data for the compounds are included in Table 1 for comparison.

Experiment [5] concerns MCF7 breast cancer cell line. In words: MTT assay, 48 h continuous drug exposure, MCF7. The format is cell-based, human. To be noted: Homo sapiens, MCF7, 48 h exposure. As for the experimental part: (§2) Some of the C8-linked diaryl ether-PBD hybrids have been tested against eleven human tumour cell lines derived from seven cancer types (lung cancer, colon cancer, cervix, ovarian cancer, oral cancer, prostate cancer and breast cancer) as per Tata protocol as shown in Table 2. For each compound, dose response curves for each cell line were measured at a minimum of five concentrations at 10 fold dilutions. A protocol of 48 h continuous drug exposure was used and a MTT assay was used to estimate cell viability or growth. The percent of cell growth (GI50) compared with the control was calculated. Some of the compounds have been evaluated for their in vitro cytotoxicity in eleven cell lines from seven human cancer types. The results are expressed as GI50 determined relative to that of untreated control cells (Table-2).

Experiment [6] concerns SiHa Cervix cancer cell line. As to the kind of experiment: MTT assay, 48 h continuous drug exposure, SiHa. Format: cell-based, human. Particulars: Homo sapiens, SiHa, 48 h, read-out: GI50 SiHa. As for the experimental part:
as §1

The test system of experiment [7] is A549 lung cancer cell line. As to the kind of experiment: MTT assay, 48 h continuous drug exposure, A549. Particulars: Homo sapiens, A549, 48 h exposure. Format: cell-based, human. As for the experimental part:
as §2

Experiment [8] concerns ZR-751 breast cancer cell line. In words: MTT assay, 48 h continuous drug exposure, ZR-751. Particulars: Homo sapiens, ZR-75-1, 48 h, read-out: GI50 ZR-751. The format is cell-based, human. The protocol:
as §1

The test system of experiment [9] is Colo205 colon cancer cell line. As to the kind of experiment: MTT assay, 48 h continuous drug exposure, Colo205. Format: cell-based, human. To be noted: Homo sapiens, COLO 205, 48 h exposure. The protocol: as §2
In experiment [10] the test system is Hop62 lung cancer cell line. As to the kind of experiment: MTT assay, 48 h continuous drug exposure, Hop62. Particulars: Homo sapiens, HOP-62, 48 h, read-out: GI50 Hop62. The format is cell-based, human. The protocol: as §1
The test system of experiment [11] is PC3 prostrate cancer cell line. In words: MTT assay, 48 h continuous drug exposure, PC3. Format: cell-based, human. To be noted: Homo sapiens, 48 h, read-out: GI50 PC3. As for the experimental part: as §1

On to `C1=CC2=CN=c3ccccc3=CN2C1` [DC-81, pyrrolo[2,1-c][1,4]benzodiazepine, reference compound], for which the GI50 in [1] was determined as 1490 nM; in [2], 200 nM; in [3], 150 nM; in [5], 170 nM; in [6], 140 nM; in experiment [7], 160 nM. Besides, the GI50 in experiment [8] amounted to 160 nM; in experiment [9], 110 nM; in [10] it was 170 nM; in [11], 170 nM. Moreover, the “(ΔTm ° C.) after incubation at 37° C. for 0 h” value in experiment [4] (0 h at 37° C.) stood at 0.3 °C. In addition, in experiment [4] (18 h at 37° C.), the “(ΔTm ° C.) after incubation at 37° C. for 18 h” value amounted to 0.7 °C.

For orientation: GI50 means the concentration giving 50% growth inhibition.
